This is an account of results in BindingDB's records for doi:10.1021/cc100076k (Universidade Federal De SaO Carlo, 2010).

The assay has as its target T1, Cathepsin L2 (Homo sapiens, UniProt O60911).
T1 sequence (O60911 whole entry): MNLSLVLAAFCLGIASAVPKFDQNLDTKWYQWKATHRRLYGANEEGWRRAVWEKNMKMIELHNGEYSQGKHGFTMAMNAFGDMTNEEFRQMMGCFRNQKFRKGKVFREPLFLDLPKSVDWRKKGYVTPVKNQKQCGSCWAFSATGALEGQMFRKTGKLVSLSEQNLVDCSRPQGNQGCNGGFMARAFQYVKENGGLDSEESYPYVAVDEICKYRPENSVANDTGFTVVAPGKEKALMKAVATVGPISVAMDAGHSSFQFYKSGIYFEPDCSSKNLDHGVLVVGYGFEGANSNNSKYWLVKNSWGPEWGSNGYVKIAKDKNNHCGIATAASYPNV
Nature of the assay: Inhibition Activity Assay. As to conditions: pH 5.5; 27 °C. The source says:
Recombinant human cathepsin V was expressed and purified as described previously.
`COc1cccc(Cl)c1-c1cc(=O)c2ccc(F)cc2o1` [Flavonid, 6b]: the IC50 is > 50 µM.
Consider `COc1ccc(-c2cc(=O)c3cc(OC)ccc3o2)c(OC)c1` [Flavonid, 6[4,2]], for which the concentration for half-maximal inhibition (IC50) is > 50 µM.
Take `COc1ccc(-c2cc(=O)c3cc(F)ccc3o2)c(OC)c1` [Flavonid, 6[3,2]]: the midpoint of inhibition, the IC50, lay at 1.6 µM.
Regarding `COc1ccc2oc(-c3ccc(OC)c(OC)c3OC)cc(=O)c2c1` [Flavonid, 6[4,3]], the IC50 is > 50 µM.
With `COc1cccc(Cl)c1/C=C/C(=O)c1ccc(F)cc1O` [Flavonid, 5b], the IC50 is > 50 µM.
The value for `O=c1cc(-c2ccc(-c3ccccc3)cc2)oc2ccc(F)cc12` [Flavonid, 6[3,6]] was 2.9 µM; that for `COc1cc(OC)c2c(=O)cc(-c3ccc(-c4ccccc4)cc3)oc2c1` [Flavonid, 6[2,6]] was > 50 µM; that for `COc1ccc(-c2cc(=O)c3cc(F)ccc3o2)c(OC)c1OC` [Flavonid, 6[3,3]] was 4.1 µM.
The compound `COc1ccc(-c2cc(=O)c3cc(OC)ccc3o2)cc1` [6-methoxy-2-(4-methoxyphenyl)-1-benzopyran-4-one] came in with an IC50 of 12 µM.
Next, `COc1ccc(C(=O)/C=C/c2ccc(OC)cc2OC)c(O)c1` [Flavonid, 5a]: > 50 µM.
The value for `O=c1cc(-c2c(F)cccc2Cl)oc2cc(F)ccc12` [Flavonid, 6e] was > 50 µM.
The value for `COc1ccc(-c2cc(=O)c3cc(F)ccc3o2)cc1` [Flavonid, 6[3,1]] was 0.8 µM; that for `COc1ccc2oc(-c3ccc(-c4ccccc4)cc3)cc(=O)c2c1` [Flavonid, 6[4,6]] was 19.2 µM; that for `COc1cc(OC)c2c(=O)cc(-c3ccc(OC)c(OC)c3OC)oc2c1` [Flavonid, 6[2,3]] was > 50 µM.
`COc1ccc(-c2cc(=O)c3cc(Br)ccc3o2)c(OC)c1` [Flavonid, 6d]: the IC50 was 1.2 µM.
`COc1ccc(-c2cc(=O)c3c(OC)cc(OC)cc3o2)c(OC)c1` [Flavonid, 6[2,2]] had an IC50 of 19 µM.

Usually IC50 stands for the concentration that gives 50% inhibition. A higher IC50 goes with weaker potency in that assay.
